The target of experiment [1] is Dual specificity tyrosine-phosphorylation-regulated kinase 1A (Homo sapiens, UniProt Q13627).
Experiment [2] addresses T1, Exosome RNA helicase MTR4 (Homo sapiens, UniProt P42285).
T1 sequence (P42285 whole entry): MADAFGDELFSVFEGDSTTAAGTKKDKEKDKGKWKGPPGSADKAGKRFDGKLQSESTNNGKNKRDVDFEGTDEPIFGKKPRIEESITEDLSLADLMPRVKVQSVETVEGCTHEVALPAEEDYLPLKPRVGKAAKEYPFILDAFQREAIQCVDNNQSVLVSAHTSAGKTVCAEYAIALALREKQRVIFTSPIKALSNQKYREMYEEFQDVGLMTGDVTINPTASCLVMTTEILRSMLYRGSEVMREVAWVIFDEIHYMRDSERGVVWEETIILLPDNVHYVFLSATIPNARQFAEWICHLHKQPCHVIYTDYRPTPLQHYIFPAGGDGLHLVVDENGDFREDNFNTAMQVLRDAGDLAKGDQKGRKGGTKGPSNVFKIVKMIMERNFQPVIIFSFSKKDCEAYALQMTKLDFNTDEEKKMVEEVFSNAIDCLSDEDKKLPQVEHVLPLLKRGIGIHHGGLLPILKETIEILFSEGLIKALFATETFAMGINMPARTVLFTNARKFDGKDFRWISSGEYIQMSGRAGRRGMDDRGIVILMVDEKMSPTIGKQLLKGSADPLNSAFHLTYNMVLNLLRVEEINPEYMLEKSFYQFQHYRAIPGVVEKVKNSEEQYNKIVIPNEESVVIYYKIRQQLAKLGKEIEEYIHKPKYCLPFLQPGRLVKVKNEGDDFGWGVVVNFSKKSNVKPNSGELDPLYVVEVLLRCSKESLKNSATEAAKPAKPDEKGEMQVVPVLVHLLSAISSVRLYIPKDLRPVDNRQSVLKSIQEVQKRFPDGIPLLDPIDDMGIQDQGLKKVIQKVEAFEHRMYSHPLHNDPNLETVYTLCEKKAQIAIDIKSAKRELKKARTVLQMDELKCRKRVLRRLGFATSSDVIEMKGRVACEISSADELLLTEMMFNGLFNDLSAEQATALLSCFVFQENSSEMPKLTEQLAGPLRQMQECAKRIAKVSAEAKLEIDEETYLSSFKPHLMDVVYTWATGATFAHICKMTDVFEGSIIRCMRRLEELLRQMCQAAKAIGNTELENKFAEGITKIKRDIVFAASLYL

The target in experiment [3] is cAMP-dependent protein kinase type II-alpha regulatory subunit (Homo sapiens, UniProt P13861).
Chain of cAMP-dependent protein kinase type II-alpha regulatory subunit (P13861 whole entry): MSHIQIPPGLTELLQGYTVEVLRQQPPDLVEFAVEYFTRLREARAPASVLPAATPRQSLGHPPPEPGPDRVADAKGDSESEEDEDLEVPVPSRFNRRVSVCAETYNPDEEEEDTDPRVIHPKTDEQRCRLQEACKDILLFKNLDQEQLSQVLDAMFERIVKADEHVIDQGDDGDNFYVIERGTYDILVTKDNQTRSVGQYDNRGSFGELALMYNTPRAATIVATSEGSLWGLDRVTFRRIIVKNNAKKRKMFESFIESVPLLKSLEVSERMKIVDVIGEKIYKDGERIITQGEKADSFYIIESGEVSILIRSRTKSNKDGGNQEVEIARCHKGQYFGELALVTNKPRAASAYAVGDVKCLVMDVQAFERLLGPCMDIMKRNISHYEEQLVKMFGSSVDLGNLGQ
The target in experiment [4] is Fibroblast growth factor receptor 1 (Homo sapiens, UniProt P11362).
Chain of Fibroblast growth factor receptor 1 (P11362 whole entry): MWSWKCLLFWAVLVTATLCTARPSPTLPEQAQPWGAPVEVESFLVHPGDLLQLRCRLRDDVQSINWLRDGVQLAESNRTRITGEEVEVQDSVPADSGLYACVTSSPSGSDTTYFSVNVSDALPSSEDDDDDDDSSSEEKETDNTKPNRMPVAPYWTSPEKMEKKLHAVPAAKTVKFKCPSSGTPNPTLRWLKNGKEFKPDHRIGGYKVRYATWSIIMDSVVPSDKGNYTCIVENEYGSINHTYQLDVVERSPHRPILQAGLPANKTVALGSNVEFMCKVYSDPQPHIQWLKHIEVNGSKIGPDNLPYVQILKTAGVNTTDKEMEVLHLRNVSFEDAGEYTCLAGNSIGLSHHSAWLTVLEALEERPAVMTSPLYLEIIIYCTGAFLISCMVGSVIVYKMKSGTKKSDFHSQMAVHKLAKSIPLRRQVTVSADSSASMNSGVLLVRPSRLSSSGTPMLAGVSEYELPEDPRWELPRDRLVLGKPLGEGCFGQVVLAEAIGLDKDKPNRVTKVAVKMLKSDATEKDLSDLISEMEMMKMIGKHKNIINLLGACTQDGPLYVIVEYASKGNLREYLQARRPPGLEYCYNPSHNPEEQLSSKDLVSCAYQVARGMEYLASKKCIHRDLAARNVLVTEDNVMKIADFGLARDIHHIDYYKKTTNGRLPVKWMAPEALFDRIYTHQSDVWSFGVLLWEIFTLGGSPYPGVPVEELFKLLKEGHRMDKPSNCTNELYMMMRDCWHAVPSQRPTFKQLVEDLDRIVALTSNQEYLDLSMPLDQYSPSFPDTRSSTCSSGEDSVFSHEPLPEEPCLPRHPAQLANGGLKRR
For experiment [5], the target named is T2, NUAK family SNF1-like kinase 2 (Homo sapiens, UniProt Q9H093).
T2 sequence (Q9H093 whole entry): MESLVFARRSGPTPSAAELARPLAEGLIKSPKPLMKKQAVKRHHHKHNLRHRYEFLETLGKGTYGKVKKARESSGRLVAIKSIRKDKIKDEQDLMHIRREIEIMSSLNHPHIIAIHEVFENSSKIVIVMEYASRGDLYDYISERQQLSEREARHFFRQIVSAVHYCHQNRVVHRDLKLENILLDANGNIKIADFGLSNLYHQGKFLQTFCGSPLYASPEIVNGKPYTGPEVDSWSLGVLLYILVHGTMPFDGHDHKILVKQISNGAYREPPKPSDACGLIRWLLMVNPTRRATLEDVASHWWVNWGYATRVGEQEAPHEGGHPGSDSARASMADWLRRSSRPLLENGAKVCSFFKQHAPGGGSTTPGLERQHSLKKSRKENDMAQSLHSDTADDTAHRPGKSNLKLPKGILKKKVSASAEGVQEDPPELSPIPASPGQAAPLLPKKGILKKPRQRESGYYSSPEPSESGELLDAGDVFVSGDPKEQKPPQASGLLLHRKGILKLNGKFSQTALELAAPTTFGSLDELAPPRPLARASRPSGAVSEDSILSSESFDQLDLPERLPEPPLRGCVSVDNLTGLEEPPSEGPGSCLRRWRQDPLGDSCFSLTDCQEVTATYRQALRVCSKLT

Experiment [6] concerns the target T3, Probable ATP-dependent RNA helicase DDX6 (Homo sapiens, UniProt P26196).
T3 sequence (P26196 whole entry): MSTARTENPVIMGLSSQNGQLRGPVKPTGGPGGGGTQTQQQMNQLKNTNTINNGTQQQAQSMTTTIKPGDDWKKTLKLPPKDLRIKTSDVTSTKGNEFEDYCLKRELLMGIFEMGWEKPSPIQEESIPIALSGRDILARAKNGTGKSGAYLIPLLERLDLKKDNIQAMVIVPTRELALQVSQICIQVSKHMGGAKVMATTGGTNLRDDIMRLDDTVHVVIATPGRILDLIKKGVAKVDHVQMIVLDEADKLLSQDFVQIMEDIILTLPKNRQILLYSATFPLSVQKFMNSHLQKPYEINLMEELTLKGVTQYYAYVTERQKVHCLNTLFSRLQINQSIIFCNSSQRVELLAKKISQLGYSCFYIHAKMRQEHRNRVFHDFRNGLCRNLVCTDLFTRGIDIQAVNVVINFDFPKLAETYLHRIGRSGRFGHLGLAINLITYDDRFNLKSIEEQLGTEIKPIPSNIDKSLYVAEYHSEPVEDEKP

Activity calls are given as the source filed them. Some results are limits rather than exact numbers.
Note: in the data inactive means no Kd found up to 30 µM.

As for `O=c1[nH]ccc2cc(OC3CCNCC3)ccc12` [SAR-407899 FREE BASE], the Kd in experiment [1], in experiment [2], in experiment [3], in experiment [4], in experiment [5] and in experiment [6] was > 30 µM (inactive) in each case.
As for `CN1CCN(CCOc2cc(OC3CCOCC3)c3c(Nc4c(Cl)ccc5c4OCO5)ncnc3c2)CC1` [SARACATINIB], the Kd in experiment [1], in experiment [2], in experiment [3], in experiment [4], in experiment [5] and in experiment [6] was > 30 µM (inactive) in each case.
As to `Cn1cc(-c2cnn3c(N)c(Br)c([C@@H]4CCCNC4)nc23)cn1` [SCH-900776], the Kd in experiment [1], in experiment [2], in experiment [3], in experiment [4], in experiment [5] and in experiment [6] was > 30 µM (inactive) each time.
`CCS(=O)(=O)c1cccc(-c2cc(C(=O)NC3CCN(C)CC3)c(C)c3[nH]c4ncc(C)cc4c23)c1` [TAK-901]: the Kd was > 30 µM (inactive) in experiment [1]; > 30 µM (inactive) in experiment [2]; > 30 µM (inactive) in experiment [3]; 1.39 µM (active) in experiment [4]; 0.705 µM (active) in experiment [5]; > 30 µM (inactive) in experiment [6].
For the compound `CO[C@H]1C[C@@H]2CC[C@@H](C)[C@@](O)(O2)C(=O)C(=O)N2CCCC[C@H]2C(=O)O[C@H]([C@H](C)C[C@@H]2CC[C@@H](OC(=O)C(C)(CO)CO)[C@H](OC)C2)CC(=O)[C@H](C)/C=C(\C)[C@@H](O)[C@@H](OC)C(=O)[C@H](C)C[C@H](C)/C=C/C=C/C=C/1C` [TEMSIROLIMUS], the Kd in experiment [1], in experiment [2], in experiment [3], in experiment [4], in experiment [5] and in experiment [6] was > 30 µM (inactive) each time.
With `COc1cc2c(Nc3ccc(Cl)c(Cl)c3F)ncnc2cc1OC[C@@H]1C[C@@H]2CN(C)C[C@@H]2C1` [TESEVATINIB], the Kd in experiment [1], in experiment [2], in experiment [3], in experiment [4], in experiment [5] and in experiment [6] was > 30 µM (inactive) throughout.
For `O=C(Cc1ccc(-c2ccc(OCCN3CCOCC3)cc2)cn1)NCc1ccccc1` [TIRBANIBULIN], the Kd in experiment [1], in experiment [2], in experiment [3], in experiment [4], in experiment [5] and in experiment [6] was > 30 µM (inactive) throughout.
Turning to `Cc1cc(Nc2ncnc3ccc(NC4=NC(C)(C)CO4)cc23)ccc1Oc1ccn2ncnc2c1` [TUCATINIB], the Kd in experiment [1], in experiment [2], in experiment [3], in experiment [4], in experiment [5] and in experiment [6] was > 30 µM (inactive) each time.
As to `Cn1ncc(Cl)c1-c1cc(C(=O)N[C@H](CN)Cc2ccc(F)c(F)c2)oc1Cl` [UPROSERTIB], the Kd in experiment [1] was 0.238 µM; in experiment [2], > 30 µM (inactive); in experiment [3], > 30 µM (inactive); in experiment [4], > 30 µM (inactive); in experiment [5], > 30 µM (inactive); in experiment [6], > 30 µM (inactive).
Regarding `CC(C)c1cc(CNc2nc(Nc3cc(C4CC4)[nH]n3)cc(N3CCN(C)CC3)n2)on1` [XL-228], the Kd in experiment [1] was > 30 µM (inactive); in experiment [2], > 30 µM (inactive); in experiment [3] it was > 30 µM (inactive); in experiment [4], 0.009 µM (active); in experiment [5] it was > 30 µM (inactive); in experiment [6] it was > 30 µM (inactive).
Regarding `CN1C/C=C/CCOc2cccc(c2)-c2ccnc(n2)Nc2cccc(c2)C1` [ZOTIRACICLIB], the Kd in experiment [1] is 5.62 µM; in experiment [2], > 30 µM (inactive); in experiment [3], > 30 µM (inactive); in experiment [4], > 30 µM (inactive); in experiment [5], > 30 µM (inactive); in experiment [6] it was > 30 µM (inactive).

These data come from ChEMBL document CHEMBL3991601, “The target landscape of clinical kinase drugs” (Science, 2017).
